What all share (format): functional
One assay relates to OVCAR-5. The experiment in a line: Cytotoxicity against human OVCAR5 cells assessed as cellular growth at 10 uM by SRB assay.
Another assay relates to HCC 2998. The experiment in a line: Cytotoxicity against human HCC2998 cells assessed as cellular growth at 10 uM by SRB assay.
A further assay deals with SN12C. The experiment in a line: Cytotoxicity against human SN12C cells assessed as cellular growth at 10 uM by SRB assay.
For a further assay, the system named is MCF7. The experiment in a line: Cytotoxicity against human MCF7 cells assessed as cellular growth at 10 uM by SRB assay.
The subject of the next assay is SR. The experiment in a line: Cytotoxicity against human SR cells assessed as cellular growth at 10 uM by SRB assay.
In the next assay the test system is BT-549. The experiment in a line: Cytotoxicity against human BT549 cells assessed as cellular growth at 10 uM by SRB assay.
In another assay the test system is NCI-H23. The experiment in a line: Cytotoxicity against human NCI-H23 cells assessed as cellular growth at 10 uM by SRB assay.
The subject of a further assay is OVCAR-4. The experiment in a line: Cytotoxicity against human OVCAR4 cells assessed as cellular growth at 10 uM by SRB assay.
The next assay concerns NCI-H522. The experiment in a line: Cytotoxicity against human NCI-H522 cells assessed as cellular growth at 10 uM by SRB assay.
Another assay relates to SK-MEL-5. The experiment in a line: Cytotoxicity against human SK-MEL-5 cells assessed as cellular growth at 10 uM by SRB assay.
A further assay concerns HOP-92. The experiment in a line: Cytotoxicity against human HOP92 cells assessed as cellular growth at 10 uM by SRB assay.
Another assay relates to SF-295. The experiment in a line: Cytotoxicity against human SF295 cells assessed as cellular growth at 10 uM by SRB assay.
For another assay, the system named is RPMI-8226. The experiment in a line: Cytotoxicity against human RPMI8226 cells assessed as cellular growth at 10 uM by SRB assay.
The test system of another assay is DU-145. The experiment in a line: Cytotoxicity against human DU145 cells assessed as cellular growth at 10 uM by SRB assay.
Another assay concerns HCT-15. The experiment in a line: Cytotoxicity against human HCT15 cells assessed as cellular growth at 10 uM by SRB assay.
A further assay relates to T47D. The experiment in a line: Cytotoxicity against human T47D cells assessed as cellular growth at 10 uM by SRB assay.
For another assay, the system named is PC-3. The experiment in a line: Cytotoxicity against human PC3 cells assessed as cellular growth at 10 uM by SRB assay.
The next assay deals with 786-0. The experiment in a line: Cytotoxicity against human 786-0 cells assessed as cellular growth at 10 uM by SRB assay.
The next assay has as its system UACC-62. The experiment in a line: Cytotoxicity against human UACC62 cells assessed as cellular growth at 10 uM by SRB assay.
Another assay deals with NCI-H322M. The experiment in a line: Cytotoxicity against human NCI-H322M cells assessed as cellular growth at 10 uM by SRB assay.

Each structure is given as a SMILES string.

For `Cc1ccc(Cl)cc1NC(=O)c1sc2nc3c(cc2c1N)C(=O)CCC3`, the Activity came to 94.25% in the assay on OVCAR-5; 74.86% in the assay on HCC 2998; 80.57% with SN12C; 35.55% with MCF7; 68.85% with SR; 93.5% in the assay on BT-549. For the same compound, the Activity in the assay on NCI-H23 stood at 63.04%; in the assay with OVCAR-4, 90.15%; in the assay on NCI-H522, 22.92%; in the assay with SK-MEL-5, 26.98%; in the assay with HOP-92 it was 56.86%; in the assay on SF-295, 4.01%. Further, the Activity with RPMI-8226 was 95.05%; in the assay on DU-145, 77.37%; with HCT-15, 45.91%; in the assay on T47D, 82.87%; in the assay with PC-3, 55.81%; in the assay with 786-0, 89.229%. Further, the Activity in the assay on UACC-62 came out at 53.09%; in the assay with NCI-H322M, 95.72%.

On to `Nc1c(C(=O)NCc2ccccc2)sc2nc3c(cc12)C(=O)CCC3`, for which the Activity in the assay on OVCAR-5 is listed as 113.08%; with HCC 2998 it was 107.63%; with SN12C it was 101.11%; with MCF7 it was 110.54%; with SR, 116.81%; in the assay with BT-549, 120.38%. For the same compound, the Activity with NCI-H23 is given as 106.63%; in the assay with OVCAR-4, 117.19%; in the assay on NCI-H522, 109.84%; in the assay with SK-MEL-5, 100.24%; in the assay on HOP-92, 79.65%; with RPMI-8226 it was 109.76%. For the same compound, the Activity with DU-145 is 127.66%; in the assay on HCT-15 it was 105.31%; in the assay on T47D, 106.44%; in the assay on PC-3, 106.49%; in the assay with 786-0, 110.1%; in the assay with UACC-62, 115.69%. The Activity in the assay on NCI-H322M turned out to be 123.15%.

Take `CC1(C)CC(=O)c2cc3c(N)c(C(=O)NCc4ccccc4)sc3nc2C1`: the Activity with OVCAR-5 turned out to be 108.53%; in the assay with HCC 2998, 101.88%; in the assay on SN12C, 98.59%; in the assay on MCF7 it was 87.02%; in the assay on SR, 116.5%; with BT-549 it was 110.98%. Besides, the Activity with NCI-H23 is recorded as 97.31%; with OVCAR-4, 78.52%; with NCI-H522, 92.67%; in the assay with SK-MEL-5, 91.1%; in the assay on HOP-92, 60.17%; with SF-295 it was 100.81%. The Activity in the assay on RPMI-8226 is given as 101.22%; with DU-145, 113.73%; with HCT-15, 100.56%; with T47D, 100.55%; in the assay on PC-3, 95.51%; in the assay on 786-0, 109.38%. Also, the Activity with UACC-62 was found to be 102.76%; in the assay with NCI-H322M it was 101.83%.

Consider `N#Cc1ccc(NC(=O)c2sc3nc4c(cc3c2N)C(=O)CCC4)cc1`, for which the Activity in the assay with OVCAR-5 came out at 89.16%; in the assay with HCC 2998 it was 99.15%; with SN12C, 98.35%; in the assay with MCF7, 97.4%; in the assay on BT-549, 108.43%; in the assay with NCI-H23 it was 106.13%. Moreover, the Activity is 105.84% with OVCAR-4; 102.85% in the assay with NCI-H522; 92.55% with SK-MEL-5; 95.57% with HOP-92; 82.4% in the assay on SF-295; 95.69% in the assay on RPMI-8226. Further, the Activity in the assay on DU-145 worked out at 94.94%; with HCT-15, 100.78%; in the assay with T47D, 95.85%; in the assay with PC-3, 106.64%; with 786-0 it was 97.81%; with UACC-62 it was 99.27%. The Activity in the assay on NCI-H322M came out at 102.55%.

Turning to `O=C(NCCc1ccccc1)c1cc2cccc([N+](=O)[O-])c2[nH]1`, the Activity with OVCAR-5 amounted to 116.02%; in the assay with HCC 2998, 105.66%; in the assay on SN12C it was 94.11%; with SR, 91.6%; in the assay on BT-549, 99.6%; in the assay with NCI-H23, 92.74%. The Activity is 75.65% in the assay on OVCAR-4; 84.92% with NCI-H522; 76.25% with SK-MEL-5; 84.88% with HOP-92; 92.52% with SF-295; 88.5% in the assay on RPMI-8226. The Activity in the assay with DU-145 is listed as 112.66%; in the assay with HCT-15 it was 86.79%; in the assay on T47D, 69.69%; in the assay on PC-3, 77.13%; in the assay with 786-0, 105.28%; with UACC-62, 71.51%. Also, in the assay on NCI-H322M, the Activity stood at 115.94%.

In the case of `COc1ccc(NC(=O)c2sc3nc4c(cc3c2N)C(=O)CCC4)cc1`, the Activity in the assay with OVCAR-5 is on record as 99.71%; with HCC 2998 it was 94.7%; in the assay on SN12C, 116.88%; in the assay on MCF7, 104.14%; in the assay on SR, 113.2%; with BT-549, 103.09%. The Activity in the assay on NCI-H23 is reported as 96.26%; in the assay with OVCAR-4, 107.69%; in the assay with NCI-H522, 100.22%; with SK-MEL-5, 98.62%; with HOP-92, 78.47%; in the assay with SF-295, 80.98%. Also, the Activity was 104.85% with RPMI-8226; 102.19% with DU-145; 100.8% in the assay on HCT-15; 110.7% in the assay with T47D; 99.67% in the assay with PC-3; 100.45% with 786-0. The Activity in the assay on UACC-62 amounted to 110.45%; in the assay with NCI-H322M it was 57.79%.

Source of the values: ChEMBL document CHEMBL2202954, “The effect of PLC-γ2 inhibitors on the growth of human tumour cells” (2012).
